Results as given in ChEMBL document CHEMBL4715849, “Recent Progress in the Discovery of Antifungal Agents Targeting the Cell Wall” (J Med Chem, 2020).
Values after ≈ are worked out from the molar mass of the structure shown.

Tests used:
Cryptococcus neoformans [1] = assay: Antifungal activity against Cryptococcus neoformans MY2062 incubated for 24 hrs by liquid microdilution assay; assay type: functional
Cryptococcus neoformans [2] = assay: Antifungal activity against Cryptococcus neoformans MY2061 incubated for 24 hrs by liquid microdilution assay; assay type: functional
Aspergillus flavus = assay: Antifungal activity against Aspergillus flavus MF383 incubated for 24 hrs by liquid microdilution assay; assay type: functional
[3] = Inhibition of Candida albicans MY1055 1,3-beta-D-glucan synthase assessed as reduction in glucan synthesis by measuring decrease in incorporation of [14C]glucose preincubated for 30 mins followed by pulse-labelling with [U-14C]D-glucose for 30 mins by autoradiography
Candida albicans [4] = assay: Antifungal activity against Candida albicans MY1055 incubated for 24 hrs by liquid microdilution assay; assay type: functional
Candida albicans [5] = assay: Antifungal activity against Candida albicans MY2301 incubated for 24 hrs by liquid microdilution assay; assay type: functional
Nakaseomyces glabratus [6] = assay: Antifungal activity against Candida glabrata CLY574 incubated for 24 hrs by liquid microdilution assay; assay type: functional
Nakaseomyces glabratus [7] = assay: Antifungal activity against Candida glabrata MY1381 incubated for 24 hrs by liquid microdilution assay; assay type: functional
[8] = test system: Meyerozyma guilliermondii; assay: Antifungal activity against Candida guilliermondii CLY308 incubated for 24 hrs by liquid microdilution assay; assay type: functional
[9] = test system: Meyerozyma guilliermondii; assay: Antifungal activity against Candida guilliermondii CLY346 incubated for 24 hrs by liquid microdilution assay; assay type: functional
Aspergillus fumigatus = assay: Antifungal activity against Aspergillus fumigatus MF5668 assessed as inhibition of normal hyphal growth; assay type: functional; conditions: time 24 hrs, read-out: MEC
Candida albicans [10] = assay: Antifungal activity against Candida albicans; assay type: functional

- MIC (Cryptococcus neoformans [1]): > 64 µg/mL
- MIC (Cryptococcus neoformans [2]): > 64 µg/mL
- MIC (Aspergillus flavus): ≤ 0.03 µg/mL
- IC50 [3]: 0.05 µg/mL (≈ 0.0705 µM)
- MIC (Candida albicans [4]): 0.25 µg/mL (≈ 0.353 µM)
- MIC (Candida albicans [5]): 0.5 µg/mL (≈ 0.705 µM)
- MIC (Nakaseomyces glabratus [6]): 1 µg/mL (≈ 1.41 µM)
- MIC (Nakaseomyces glabratus [7]): 1 µg/mL (≈ 1.41 µM)
- MIC [8]: 1 µg/mL (≈ 1.41 µM)
- MIC [9]: 2 µg/mL (≈ 2.82 µM)
- MIC (Candida albicans [10]): 0.2 µg/mL (≈ 0.282 µM)
SMILES: CC(=O)O[C@@H]1C[C@]23C4=CC[C@@]5(C)[C@H](C(=O)O)[C@@](C)([C@H](C)C(C)C)CC[C@]5(C)[C@H]4CC[C@H]2[C@@](C)(COC3O)[C@H]1O[C@@H]1O[C@H](CO)[C@@H](O)[C@H](O)[C@H]1O (some centres not stated) [ENFUMAFUNGIN]
- minimal effective concentration (Aspergillus fumigatus): ≤ 0.03 µg/mL
